Results on 64 compounds are retold here after ChEMBL document CHEMBL4665887, “Identification, Structure-Activity Relationships of Marine-Derived Indolocarbazoles, and a Dual PKCθ/δ Inhibitor with Potent Antipancreatic Cancer Efficacy” (J Med Chem, 2020).

The target in the assay is Protein kinase C theta type (Homo sapiens, UniProt Q04759). As to the kind of experiment: Inhibition of PKCtheta (unknown origin) by HTRF assay. For orientation: In TR-FRET formats the signal depends on donor and acceptor labels being close together.
Protein kinase C theta type, sequence (Q04759 whole entry): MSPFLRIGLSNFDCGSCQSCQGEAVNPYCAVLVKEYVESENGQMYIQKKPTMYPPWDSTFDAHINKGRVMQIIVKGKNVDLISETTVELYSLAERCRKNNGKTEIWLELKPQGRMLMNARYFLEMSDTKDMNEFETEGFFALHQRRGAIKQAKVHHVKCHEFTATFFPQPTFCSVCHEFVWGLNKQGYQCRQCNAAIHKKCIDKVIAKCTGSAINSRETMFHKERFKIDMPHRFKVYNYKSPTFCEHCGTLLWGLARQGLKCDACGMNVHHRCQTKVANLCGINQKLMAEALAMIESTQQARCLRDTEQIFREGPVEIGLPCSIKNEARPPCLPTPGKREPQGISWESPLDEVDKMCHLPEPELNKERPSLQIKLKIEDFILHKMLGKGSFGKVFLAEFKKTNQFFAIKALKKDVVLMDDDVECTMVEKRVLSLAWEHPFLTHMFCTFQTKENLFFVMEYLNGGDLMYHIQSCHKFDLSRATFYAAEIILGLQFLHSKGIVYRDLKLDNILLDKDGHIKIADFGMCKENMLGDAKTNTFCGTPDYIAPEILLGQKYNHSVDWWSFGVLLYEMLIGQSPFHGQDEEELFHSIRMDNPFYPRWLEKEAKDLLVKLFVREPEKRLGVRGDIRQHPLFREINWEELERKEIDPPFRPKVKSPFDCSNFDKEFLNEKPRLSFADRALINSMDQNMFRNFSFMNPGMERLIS

`O=C1NC(O)c2c1c1c3ccccc3[nH]c1c1[nH]c3ccccc3c21` (centres undefined): the IC50 (as a rule, the concentration that gives 50% inhibition) is above 2.5 µM.
For `C[C@@H]1O[C@@H](n2c3ccccc3c3c4c(c5c6ccccc6[nH]c5c32)CNC4=O)[C@H](O)[C@H](O)[C@H]1O` the value was above 2.5 µM; for `C[C@@H]1O[C@@H](n2c3ccccc3c3c4c(c5c6ccccc6[nH]c5c32)CNC4=O)C[C@@H](N)[C@H]1O`, 0.26 µM; for `CC(=O)N[C@@H]1C[C@H](n2c3ccccc3c3c4c(c5c6ccccc6[nH]c5c32)CNC4=O)O[C@@H](C)[C@@H]1O`, above 2.5 µM.
For `CC(=O)N[C@H]1C[C@H]2O[C@@](C)([C@@H]1O)n1c3ccccc3c3c4c(c5c6ccccc6n2c5c31)C(=O)NC4` the value was 0.27 µM; for `CC(=O)N[C@@H]1C[C@H](n2c3ccccc3c3c4c(c5c6cc(O)ccc6[nH]c5c32)CNC4=O)O[C@@H](C)[C@@H]1O`, above 2.5 µM; for `C[C@H]1O[C@@H]2C[C@](O)([C@H]1O)n1c3ccccc3c3c4c(c5c6cc(O)ccc6n2c5c31)C(=O)NC4`, above 2.5 µM.
The result for `COC1NC(=O)c2c1c1c3ccccc3[nH]c1c1[nH]c3ccc(O)cc3c21` (centres undefined) reads above 2.5 µM.
In the case of `O=C1NCc2c1c1c3ccccc3[nH]c1c1[nH]c3ccc(O)cc3c21`, the concentration for half-maximal inhibition (IC50) was above 2.5 µM.
For `CC(=O)N[C@@H]1C[C@H](n2c3ccc(O)cc3c3c4c(c5c6ccccc6[nH]c5c32)CNC4=O)O[C@@H](C)[C@@H]1O` the value was 0.28 µM.
With `C[C@@H]1O[C@@H](n2c3ccc(O)cc3c3c4c(c5c6ccccc6[nH]c5c32)CNC4=O)C[C@@H](N)[C@H]1O`, the IC50 is above 2.5 µM.
As for `C[C@@H]1O[C@@H]2C[C@](O)([C@H]1O)n1c3ccccc3c3c4c(c5c6cc(O)ccc6n2c5c31)C(=O)NC4`, the IC50 was above 2.5 µM.
The result for `O=C1NCc2c1c1c3cc(O)ccc3[nH]c1c1[nH]c3ccccc3c21` reads 2.11 µM.
For `C[C@@H]1O[C@@H](n2c3ccccc3c3c4c(c5c6ccccc6[nH]c5c32)C(=O)NC4=O)[C@H](O)[C@H](O)[C@H]1O` the value was above 2.5 µM.
In turn, `C[C@@H]1O[C@@H](n2c3ccccc3c3c4c(c5c6ccccc6[nH]c5c32)CNC4=O)C[C@@H](NC=O)[C@H]1O` returned a half-inhibitory concentration (IC50) above 2.5 µM.
For `CNC(=O)C[C@H]1O[C@@](C)(C(=O)OC)n2c3ccccc3c3c4c(c5c6ccccc6n1c5c32)C(=O)NC4` the value was above 2.5 µM; for `CO[C@@H]1[C@H](N(C)C=O)C[C@H]2O[C@]1(C)n1c3ccccc3c3c4c(c5c6ccccc6n2c5c31)C(=O)NC4`, 0.25 µM.
For `C[C@@H]1O[C@@H](n2c3ccc(O)cc3c3c4c(c5c6ccccc6[nH]c5c32)CNC4=O)[C@H](O)[C@H](O)[C@H]1O` the value was above 2.5 µM; for `COC(=O)[C@@]1(OC)C[C@H]2O[C@]1(C)n1c3ccccc3c3c4c(c5c6ccccc6n2c5c31)C(=O)NC4`, 0.52 µM; for `C[C@]12O[C@H](C[C@]1(O)C(=O)O)n1c3ccccc3c3c4c(c5c6ccccc6n2c5c31)C(=O)NC4=O`, 1.86 µM.
The result for `CO[C@H]1NC(=O)c2c1c1c3ccccc3[nH]c1c1c2c2ccccc2n1[C@@H]1O[C@@H](C)[C@H](O)[C@@H](O)[C@H]1O` reads above 2.5 µM; that for `CO[C@H]1NC(=O)c2c1c1c3ccccc3n3c1c1c2c2ccccc2n1[C@@H]1O[C@@]3(C)[C@H](OC)[C@@H](O)[C@H]1O`, 0.89 µM; that for `CNn1c2ccccc2c2c3c(c4c5ccccc5[nH]c4c21)C(=O)NC3`, above 2.5 µM.
Consider `C[C@]12O[C@H](C[C@]1(O)C(=O)O)n1c3ccccc3c3c4c(c5c6ccccc6n2c5c31)CNC4=O`, for which the concentration for half-maximal inhibition (IC50) came to 5.59 µM.
Consider `CO[C@@H]1[C@H](NC=O)C[C@H]2O[C@]1(C)n1c3ccccc3c3c4c(c5c6ccccc6n2c5c31)C(=O)NC4`, for which the IC50 was above 2.5 µM.
For `CO[C@@H]1C(=O)C[C@H]2O[C@]1(C)n1c3ccccc3c3c4c(c5c6ccccc6n2c5c31)C(=O)NC4` the value was above 2.5 µM; for `C[C@@H]1O[C@@H](n2c3ccccc3c3c4c(c5c6ccccc6[nH]c5c32)C(=O)NC4=O)C[C@@H](NC=O)[C@H]1O`, 4.76 µM.
The result for `CO[C@@H]1[C@H](N)C[C@H]2O[C@]1(C)n1c3ccccc3c3c4c(c5c6ccccc6n2c5c31)C(=O)NC4=O` reads 0.036 µM.
For `CO[C@H]1[C@@H](N2CC[C@@H](O)C2=O)C[C@@H]2O[C@@]1(C)n1c3ccccc3c3c4c(c5c6ccccc6n2c5c31)C(=O)NC4` the value was 0.17 µM; for `C[C@@H]1O[C@@H](n2c3ccccc3c3c4c(c5c6ccccc6[nH]c5c32)C(=O)NC4=O)C[C@@H](N)[C@H]1O`, 1.18 µM.
Compound `CO[C@@H]1[C@@H](O)[C@@H](O)[C@H]2O[C@]1(C)n1c3ccccc3c3c4c(c5c6ccccc6n2c5c31)C(=O)NC4=O` displayed a half-inhibitory concentration (IC50) of 1.42 µM.
Compound `CO[C@@H]1[C@H](NC(C)=O)C[C@H]2O[C@]1(C)n1c3ccccc3c3c4c(c5c6ccccc6n2c5c31)C(=O)NC4` had a half-inhibitory concentration (IC50) of 0.038 µM.
The compound `COC(=O)[C@H]1C[C@H]2O[C@]1(C)n1c3ccccc3c3c4c(c5c6ccccc6n2c5c31)C(=O)NC4` came in with a half-maximal inhibitory concentration (IC50) of 1.68 µM.
For `CO[C@@H]1[C@H](NC(=O)C(=O)c2c[nH]c3ccccc23)C[C@H]2O[C@]1(C)n1c3ccccc3c3c4c(c5c6ccccc6n2c5c31)C(=O)NC4` the value was 1.79 µM; for `CC(=O)N[C@@H]1C[C@H](n2c3ccccc3c3c4c(c5c6ccccc6[nH]c5c32)C(=O)NC4=O)O[C@@H](C)[C@@H]1O`, above 2.5 µM.
The compound `C[C@@H]1O[C@@H]2C[C@](O)([C@H]1O)n1c3ccccc3c3c4c(c5c6ccccc6n2c5c31)C(=O)NC4` came in with an IC50 of 1.91 µM.
With `COc1cc(/C=C(/C(N)=O)n2c3ccccc3c3c4c(c5c6ccccc6[nH]c5c32)CNC4=O)ccc1O`, the half-maximal inhibitory concentration (IC50) is above 2.5 µM.
For `CO[C@@H]1/C(=N/O)C[C@H]2O[C@]1(C)n1c3ccccc3c3c4c(c5c6ccccc6n2c5c31)C(=O)NC4` the value was above 2.5 µM; for `CO[C@@H]1[C@@H](O)[C@@H](O)[C@H]2O[C@]1(C)n1c3ccccc3c3c4c(c5c6ccccc6n2c5c31)C(=O)N[C@H]4O`, 2.25 µM.
The result for `CO[C@@H]1[C@@H](O)[C@@H](O)[C@H]2O[C@]1(C)n1c3ccccc3c3c4c(c5c6ccccc6n2c5c31)C(=O)NC4` reads 1.01 µM; that for `CO[C@@H]1[C@H](O)C[C@H]2O[C@]1(C)n1c3ccccc3c3c4c(c5c6ccccc6n2c5c31)C(=O)NC4`, 1.3 µM; that for `C[C@]12O[C@H](C[C@@H](O)[C@H]1O)n1c3ccccc3c3c4c(c5c6ccccc6n2c5c31)CNC4=O`, 0.6 µM.
Turning to `CO[C@@H]1[C@@H](O)C[C@H]2O[C@]1(C)n1c3ccccc3c3c4c(c5c6ccccc6n2c5c31)C(=O)NC4`, 0.48 µM corresponded to half-maximal inhibition (IC50).
In turn, `CN[C@]1(C(=O)OC)C[C@H]2O[C@]1(C)n1c3ccccc3c3c4c(c5c6ccccc6n2c5c31)C(=O)NC4` gave an IC50 above 2.5 µM.
The result for `CO[C@@H]1[C@H](N(C)C(C)=O)C[C@H]2O[C@]1(C)n1c3ccccc3c3c4c(c5c6ccccc6n2c5c31)C(=O)NC4` reads 0.17 µM; that for `CO[C@@H]1[C@@H](O)[C@@H](O)[C@H]2O[C@]1(C)n1c3ccccc3c3c4c(c5c6ccccc6n2c5c31)C(=O)N[C@@H]4O`, above 2.5 µM; that for `CO[C@@H]1C(C)(O)O[C@@H]2C[C@@]1(OC)n1c3ccccc3c3c4c(c5c6ccccc6n2c5c31)C(=O)NC4` (some centres undefined), above 2.5 µM.
`CO[C@@H]1[C@H](N(C)C(C)=O)C[C@H]2O[C@]1(C)n1c3ccccc3c3c4c(c5c6ccccc6n2c5c31)C(=O)NC4=O` showed a concentration for half-maximal inhibition (IC50) of 0.05 µM.
For `CC(=O)N[C@H]1C[C@H](n2c3ccccc3c3c4c(c5c6ccccc6[nH]c5c32)CNC4=O)O[C@@H](C)[C@@H]1O` the value was 1.05 µM; for `COC(=O)c1cccc2c1NC1(C[C@H]3O[C@]1(C)n1c4ccccc4c4c5c(c6c7ccccc7n3c6c41)C(=O)NC5)C(=O)O2` (some centres undefined), above 2.5 µM; for `C[C@@H]1O[C@@H](n2c3ccccc3c3c4c(c5c6ccccc6[nH]c5c32)[C@H](O)NC4=O)[C@H](O)[C@H](O)[C@H]1O`, above 2.5 µM.
For `CN1Cc2c(c3c4ccccc4[nH]c3c3[nH]c4ccccc4c23)C1=O` the value was above 2.5 µM; for `COC1=C(C)O[C@@H]2C[C@@]1(OC)n1c3ccccc3c3c4c(c5c6ccccc6n2c5c31)C(=O)NC4`, 0.37 µM; for `C[C@H]1NC(=O)c2c1c1c3ccccc3[nH]c1c1[nH]c3ccccc3c21`, above 2.5 µM.
The result for `C[C@H]1O[C@@H]2C[C@](O)([C@@H]1O)n1c3ccccc3c3c4c(c5c6ccccc6n2c5c31)C(=O)NC4` reads above 2.5 µM.
Regarding `CO[C@H]1C(=O)C[C@H]2O[C@]1(C)n1c3ccccc3c3c4c(c5c6ccccc6n2c5c31)C(=O)NC4`, half-maximal inhibition (IC50) was put at 0.56 µM.
As to `CO[C@@H]1[C@H](N(C)C(N)=O)C[C@H]2O[C@]1(C)n1c3ccccc3c3c4c(c5c6ccccc6n2c5c31)C(=O)NC4`, half-maximal inhibition (IC50) required 0.4 µM.
Compound `CO[C@@H]1[C@H](O)[C@H](O)[C@H](C)O[C@H]1n1c2ccccc2c2c3c(c4c5ccccc5[nH]c4c21)CNC3=O` gave a half-inhibitory concentration (IC50) of 9.43 µM.
The result for `C[C@@H]1O[C@@H](n2c3ccccc3c3c4c(c5c6ccccc6[nH]c5c32)CNC4=O)C[C@@H](N)[C@H]1OC(O)C1CO1` (some centres undefined) reads 5.75 µM.
On to `CO[C@@H]1[C@@H](O)[C@@H](O)[C@H]2O[C@]1(C)n1c3ccccc3c3c4c(c5c6ccccc6n2c5c31)C(=O)N[C@H]4OC`, for which the concentration for half-maximal inhibition (IC50) was above 2.5 µM.
The result for `COC1NC(=O)c2c1c1c3ccccc3[nH]c1c1[nH]c3ccccc3c21` (centres undefined) reads above 2.5 µM; that for `CN[C@@H]1C[C@H]2O[C@@](C)([C@@H]1OC)n1c3ccccc3c3c4c(c5c6ccccc6n2c5c31)C(=O)NC4=O` (stereo in doubt; 14), 0.017 µM; that for `O=C1NC(=O)c2c1c1c3ccccc3[nH]c1c1[nH]c3ccccc3c21` [STAUROSPORINE AGLYCON], above 2.5 µM.
For `O=C1NCc2c1c1c3ccccc3[nH]c1c1[nH]c3ccccc3c21` [STAUROSPORINONE] the value was above 2.5 µM.
